# Laboratory results taken from ChEMBL document CHEMBL1938266, “A three-step protocol for lead optimization: quick identification of key conformational features and functional groups in the SAR studies of non-ATP competitive MK2 (MAPKAPK2) inhibitors” (Bioorg Med Chem Lett, 2012).
# Assays:
# [1] = target: T1, MAP kinase-activated protein kinase 2 (Homo sapiens, UniProt P49137); test: Inhibition of human MK2
# THP-1 = test: Inhibition of LPS-stimulated TNFalpha production in human THP1 cells by ELISA; format: functional, cell-based
# [2] = target: T1, MAP kinase-activated protein kinase 2; test: Inhibition of MK2-mediated HSP27 phosphorylation by cell-based assay
# T1 sequence (P49137 whole entry): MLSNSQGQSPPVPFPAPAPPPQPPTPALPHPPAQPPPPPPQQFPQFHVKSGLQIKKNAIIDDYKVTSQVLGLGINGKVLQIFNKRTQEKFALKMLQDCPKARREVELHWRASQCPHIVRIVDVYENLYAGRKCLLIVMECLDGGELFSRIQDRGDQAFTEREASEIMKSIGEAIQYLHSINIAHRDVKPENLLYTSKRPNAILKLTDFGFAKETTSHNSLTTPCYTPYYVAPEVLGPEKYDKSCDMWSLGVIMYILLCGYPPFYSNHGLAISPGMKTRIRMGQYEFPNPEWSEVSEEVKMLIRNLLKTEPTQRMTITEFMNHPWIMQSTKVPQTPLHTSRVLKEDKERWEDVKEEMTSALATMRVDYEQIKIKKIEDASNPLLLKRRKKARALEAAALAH
Structure (SMILES),IC50 ([1]; read-out: IC50),EC50 (THP-1),IC50 [1],EC50 [2]
O=C(c1ccc(-c2ccc(Cl)cc2)o1)N(Cc1ccccn1)C1CCC(N2CCNCC2)CC1 (centres undefined),4740 nM,,,
N#Cc1ccc(-c2ccc(C(=O)N(Cc3ccccc3-c3ccc(C#N)cc3)c3ccc(N4CCNCC4)cc3)o2)cc1,8 nM,2950 nM,,
N#Cc1ccc(-c2ccc(C(=O)N(Cc3cccnc3-c3cncnc3)c3ccc(N4CCNCC4)cc3)o2)cc1,100 nM,,,
N#Cc1ccc(-c2ccc(C(=O)N(Cc3ccccn3)C3CCNCC3)o2)cc1,10000 nM,,,
N#Cc1ccc(-c2ccc(C(=O)N(Cc3ccccc3-c3ccncc3)c3ccc(N4CCNCC4)cc3)o2)cc1,12 nM,8400 nM,,
COc1ccc(-c2ccccc2CN(C(=O)c2ccc(-c3ccc(C#N)cc3)o2)c2ccc(N3CCNCC3)cc2)cn1,43 nM,,,
Cc1cccc(CN(C(=O)c2ccc(-c3ccc(Cl)cc3)o2)c2cccc(N3CCNCC3)c2)n1,,,Not Active,
N#Cc1ccc(-c2ccc(C(=O)N(Cc3ccccc3-c3ccccn3)c3ccc(N4CCNCC4)cc3)o2)cc1,14 nM,2540 nM,,
CN1CCN(CCCN(Cc2ccccn2)C(=O)c2ccc(-c3ccc(C#N)cc3)o2)CC1,10000 nM,,,
COc1ncc(-c2ccccc2CN(C(=O)c2ccc(-c3ccc(C#N)cc3)o2)c2ccc(N3CCNCC3)cc2)cn1,52 nM,,,
COc1cncc(-c2ccccc2CN(C(=O)c2ccc(-c3ccc(C#N)cc3)o2)c2ccc(N3CCNCC3)cc2)c1,20 nM,1800 nM,,
N#Cc1ccc(-c2ccc(C(=O)N(Cc3ccccc3-c3cncnc3)c3ccc(N4CCNCC4)cc3)o2)cc1,27 nM,880 nM,,
N#Cc1ccc(-c2ccc(C(=O)N(Cc3ccccc3-c3ccccc3)c3ccc(N4CCNCC4)cc3)o2)cn1,258 nM,,,
COc1ccccc1-c1ccccc1CN(C(=O)c1ccc(-c2ccc(C#N)cc2)o1)c1ccc(N2CCNCC2)cc1,20 nM,1960 nM,,
COc1ccccc1-c1ncccc1CN(C(=O)c1ccc(-c2ccc(C#N)cc2)o1)c1ccc(N2CCNCC2)cc1,12 nM,734 nM,,
O=C(c1ccc(-c2ccc(Cl)cc2)o1)N(Cc1ccccn1)c1ccc(N2CCNCC2)cc1,110 nM,5000 nM,,350 nM
Cc1cccc(CN(C(=O)c2ccc(-c3ccc(C#N)cc3)o2)c2ccc(N3CCNCC3)cc2)n1,79 nM,,,
COc1ccncc1-c1ncccc1CN(C(=O)c1ccc(-c2ccc(C#N)cc2)o1)c1ccc(N2CCNCC2)cc1,9 nM,1590 nM,,
Cc1cccc(CN(C(=O)c2ccc(-c3ccc(Cl)cc3)o2)c2ccccc2N2CCNCC2)n1,,,Not Active,
N#Cc1ccc(-c2ccc(C(=O)N(Cc3ccccc3-c3cccnc3)c3ccc(N4CCNCC4)cc3)o2)cn1,177 nM,,,
N#Cc1ccc(-c2ccc(C(=O)N(Cc3ccccn3)c3ccc(N4CCNCC4)cc3)o2)cc1,115 nM,,,
Cc1cccc(C)c1-c1ccccc1CN(C(=O)c1ccc(-c2ccc(C#N)cc2)o1)c1ccc(N2CCNCC2)cc1,258 nM,,,
COc1ccncc1-c1ccccc1CN(C(=O)c1ccc(-c2ccc(C#N)cc2)o1)c1ccc(N2CCNCC2)cc1,8 nM,310 nM,,
COc1cc(-c2ccccc2CN(C(=O)c2ccc(-c3ccc(C#N)cc3)o2)c2ccc(N3CCNCC3)cc2)ccn1,24 nM,,,
Cc1noc(C)c1-c1ccccc1CN(C(=O)c1ccc(-c2ccc(C#N)cc2)o1)c1ccc(N2CCNCC2)cc1,21 nM,1770 nM,,

# Further lines, results first:
IC50 ([1]; read-out: IC50),EC50 (THP-1),IC50 [1],EC50 [2],Structure (SMILES)
12 nM,,,,COc1cccc(-c2ccccc2CN(C(=O)c2ccc(-c3ccc(C#N)cc3)o2)c2ccc(N3CCNCC3)cc2)c1
9 nM,3460 nM,,,N#Cc1ccc(-c2ccc(C(=O)N(Cc3ccccc3-c3ccccc3)c3ccc(N4CCNCC4)cc3)o2)cc1
1920 nM,,,,N#Cc1ccc(-c2ccc(C(=O)N(Cc3ccc(-c4ccccc4F)cc3)c3ccc(N4CCNCC4)cc3)o2)cc1
9 nM,1240 nM,,,N#Cc1ccc(-c2ccc(C(=O)N(Cc3ccccc3-c3cccnc3)c3ccc(N4CCNCC4)cc3)o2)cc1
110 nM,,,,N#Cc1ccc(-c2ccc(C(=O)N(Cc3cccc(-c4ccncc4)c3)c3ccc(N4CCNCC4)cc3)o2)cc1
285 nM,,,,Cc1ccccc1-c1ccccc1CN(C(=O)c1ccc(-c2ccc(C#N)cc2)o1)c1ccc(N2CCNCC2)cc1
1450 nM,,,,N#Cc1ccc(-c2ccc(C(=O)N(Cc3cccc(-c4ccccc4F)c3)c3ccc(N4CCNCC4)cc3)o2)cc1
41 nM,6690 nM,,,N#Cc1ccc(-c2ccc(C(=O)N(Cc3ccc(-c4ccccc4)cc3)c3ccc(N4CCNCC4)cc3)o2)cc1
70 nM,28100 nM,,,N#Cc1ccc(-c2ccc(C(=O)N(Cc3cccc(-c4ccccc4)c3)c3ccc(N4CCNCC4)cc3)o2)cc1
19 nM,1590 nM,,,N#Cc1ccc(-c2ccc(C(=O)N(Cc3ccccc3-c3cccc(C#N)c3)c3ccc(N4CCNCC4)cc3)o2)cc1
12 nM,,,,N#Cc1ccc(-c2ccc(C(=O)N(Cc3ccccc3-c3ccccc3F)c3ccc(N4CCNCC4)cc3)o2)cc1
128 nM,,,,N#Cc1ccc(-c2ccc(C(=O)N(Cc3ccc(-c4ccncc4)cc3)c3ccc(N4CCNCC4)cc3)o2)cc1
